# In patent US20260130933A1, “PHARMACEUTICAL COMPOSITION FOR PREVENTION OR TREATMENT OF NEPHROPATHY AND/OR DIABETES MELLITUS, COMPRISING ENAVOGLIFLOZIN” (DAEWOONG PHARMACEUTICAL CO., LTD., priority 2022, published 2026):
# Assay: Example 2: phase 3 trial, enavogliflozin 0.3 mg vs dapagliflozin 10 mg once a day for 24 weeks added to metformin in patients with type 2 diabetes (same efficacy, exploratory and safety endpoints)
# Assay type: in vivo, human
# Experimental: Subjects who met the inclusion/exclusion criteria were administered a placebo of the clinical trial drug under single-blind (subject blinding) conditions during a 2-week run-in period while continuing to receive metformin. […] The randomized subjects were administered two tablets of the clinical trial drug for each administration group once a day, and then visited the institution at weeks 6, 12, 18, and 24 during the 24-week administration period to conduct efficacy and safety evaluations.
# • 1. Change in HbA1c at week 24 after administration of clinical trial drug compared to Visit 2 (randomization)
# • 1. Change in HbA1c at each time point of weeks 6, 12, and 18 after administration of clinical trial drug compared to Visit 2 (randomization) • 2. Change in FPG at each time point of weeks 6, 12, 18, and 24 after administration of clinical trial drug compared to Visit 2 (randomization) • 3. Proportion of subjects achieving HbA1c<7% at each time point of weeks 6, 12, 18, and 24 after administration of clinical trial drug • 4. Proportion of subjects achieving HbA1c<6.5% at each time point of weeks 6, 12, 18, and 24 after administration of clinical trial drug • 5. Proportion of subjects achieving therapeutic response (HbA1c change (HbA1c at Visit 2-HbA1c at each evaluation time point)>0.5% or HbA1c<7% at each evaluation time point compared to Visit 2 (randomization)) at each time point of weeks 6, 12, 18 and 24 after administration of clinical trial drug
# • 1. Change in fasting c-peptide at each time point of weeks 6, 12, 18, and 24 after administration of clinical trial drug compared to Visit 2 (randomization) • 2. Change in body weight at each time point of weeks 6, 12, 18, and 24 after administration of clinical trial drug compared to Visit 2 (randomization) • 3. Change in fasting lipid concentration (total cholesterol, LDL-C, HDL-C, and triglycerides) at each time point of weeks 6, 12, 18, and 24 after administration of clinical trial drug compared to Visit 2 (randomization) • 4. Changes in systolic or diastolic blood pressure at each time point of weeks 6, 12, 18, and 24 after administration of clinical trial drug compared to Visit 2 (randomization) • 5. Changes in β-cell function and insulin resistance measured by HOMA-β and HOMA-IR at each time point of weeks 6, 12, 18, and 24 after administration of clinical trial drug compared to Visit 2 (randomization) • 6. Changes in renal function-related indicators (UACR, UGCR) measured by UACR at each time point of weeks 6, 12, 18, and 24 after administration of clinical trial drug compared to Visit 2 (randomization) • 7. Changes in obesity-related indicators (adiponectin, leptin) at each time point of weeks 6, 12, 18, and 24 after administration of clinical trial drug compared to Visit 2 (randomization)
# [1] = week 6, modified per-protocol set 1, enavogliflozin 0.3 mg, dapagliflozin 10 mg
# [2] = week 6, per-protocol set, enavogliflozin 0.3 mg, dapagliflozin 10 mg
# [3] = week 12, modified per-protocol set 1, enavogliflozin 0.3 mg, dapagliflozin 10 mg
structure (smiles),measurement,setting,value
"CCOc1ccc(Cc2cc([C@@H]3O[C@H](CO)[C@@H](O)[C@H](O)[C@H]3O)ccc2Cl)cc1 [Dapagliflozin, reference compound]","HOMA-IR, Median","Week 24, PPS",1.82
same,"HOMA-β change from baseline, ANCOVA LS mean (SE)","Week 24, PPS",11.93
same,"HOMA-β change from baseline, Mean (SD)","Week 24, PPS",12.23
same,"HOMA-β change from baseline, Median","Week 24, PPS",5.30
same,"HOMA-β, Mean (SD)","Week 24, PPS",56.67
same,"HOMA-β, Median","Week 24, PPS",46.75
same,"Leptin change from baseline, ANCOVA LS mean (SE)","Week 24, PPS",-1.28 ng/mL
same,"Leptin change from baseline, Mean (SD)","Week 24, PPS",-1.31 ng/mL
same,"Leptin change from baseline, Median","Week 24, PPS",-1.17 ng/mL
same,"Leptin, Mean (SD)","Week 24, PPS",10.37 ng/mL
same,"Leptin, Median","Week 24, PPS",6.69 ng/mL
same,"UACR change from baseline, ANCOVA LS mean (SE)","Week 24, PPS",-17.37 g/kg
same,"UACR change from baseline, Mean (SD)","Week 24, PPS",-25760 mg/kg
same,"UACR change from baseline, Median","Week 24, PPS",-1.70 g/kg
same,"UACR, Mean (SD)","Week 24, PPS",31370 mg/kg
same,"UACR, Median","Week 24, PPS",11.10 g/kg
same,"UGCR change from baseline, ANCOVA LS mean (SE)","Week 24, PPS",44.94 mg/mg
same,"UGCR change from baseline, Mean (SD)","Week 24, PPS",43.01 mg/mg
same,"UGCR change from baseline, Median","Week 24, PPS",42.01 mg/mg
same,"UGCR, Mean (SD)","Week 24, PPS",45.27 mg/mg
same,"UGCR, Median","Week 24, PPS",43.81 mg/mg
same,"HDL-C change from baseline, ANCOVA LS mean (SE)","Week 24, mPPS1",3.19(0.66) mg/dL
same,"HDL-C change from baseline, Mean (SD)","Week 24, mPPS1",3.55(5.30) mg/dL
same,"HDL-C change from baseline, Median","Week 24, mPPS1",3.00 mg/dL
same,"HDL-C, Mean (SD)","Week 24, mPPS1",50.45(9.72) mg/dL
same,"HDL-C, Median","Week 24, mPPS1",50.00 mg/dL
same,"LDL-C change from baseline, ANCOVA LS mean (SE)","Week 24, mPPS1",0.93(1.98) mg/dL
same,"LDL-C change from baseline, Mean (SD)","Week 24, mPPS1",2.68(20.64) mg/dL
same,"LDL-C change from baseline, Median","Week 24, mPPS1",2.00 mg/dL
same,"LDL-C, Mean (SD)","Week 24, mPPS1",78.84(25.81) mg/dL
same,"LDL-C, Median","Week 24, mPPS1",76.00 mg/dL
same,"Triglycerides change from baseline, ANCOVA LS mean (SE)","Week 24, mPPS1",−6.70(5.28) mg/dL
same,"Triglycerides change from baseline, Mean (SD)","Week 24, mPPS1",−10.64(52.51) mg/dL
same,"Triglycerides change from baseline, Median","Week 24, mPPS1",-7.00 mg/dL
same,"Triglycerides, Mean (SD)","Week 24, mPPS1",122.28(58.14) mg/dL
same,"Triglycerides, Median","Week 24, mPPS1",110.00 mg/dL
same,"Diastolic blood pressure change from baseline, ANCOVA LS mean (SE)","Week 24, mPPS2",−4.26 mmHg
same,"Diastolic blood pressure change from baseline, Mean (SD)","Week 24, mPPS2",−3.87 mmHg
same,"Diastolic blood pressure change from baseline, Median","Week 24, mPPS2",−4.00 mmHg
same,"Diastolic blood pressure, Mean (SD)","Week 24, mPPS2",72.05 mmHg
same,"Diastolic blood pressure, Median","Week 24, mPPS2",71.00 mmHg
same,"Systolic blood pressure change from baseline, ANCOVA LS mean (SE)","Week 24, mPPS2",−6.57(1.04) mmHg
same,"Systolic blood pressure change from baseline, Mean (SD)","Week 24, mPPS2",−6.03(12.13) mmHg
same,"Systolic blood pressure change from baseline, Median","Week 24, mPPS2",−7.00 mmHg
same,"Systolic blood pressure, Mean (SD)","Week 24, mPPS2",121.40(11.90) mmHg
same,"Systolic blood pressure, Median","Week 24, mPPS2",122.00 mmHg
same,"FPG change from baseline, LS mean (SE)",week 6,−23.81(2.23) mg/dL
same,"HOMA-IR change from baseline, LS mean (SE)",week 6,−1.31(0.15)
same,"HOMA-β change from baseline, LS mean (SE)",week 6,−1.79(5.59)
same,"HbA1c change from baseline, LS mean (SE)",week 6,−0.63(0.04) % p
same,"LDL-C change from baseline, LS mean (SE)",week 6,4.20(1.95) mg/dL
same,Subjects achieving HbA1c target of <7%,week 6,(51.69) %
same,Subjects achieving HbA1c<6.5%,week 6,14.61%
same,Subjects achieving therapeutic response (HbA1c change >0.5% or HbA1c<7%),week 6,79.78%
same,"UACR change from baseline, LS mean (SE)",week 6,8.13(10.88) g/kg
same,"UGCR change from baseline, LS mean (SE)",week 6,50.10(2.80) mg/mg
same,"diastolic blood pressure change from baseline, LS mean (SE)",week 6,−1.47(0.72) mmHg
same,"fasting c-peptide change from baseline, LS mean (SE)",week 6,−0.07(0.02) ng/ml
same,"leptin change from baseline, LS mean (SE)",week 6,−1.62(0.47) ng/mL
same,Subjects achieving HbA1c target of <7%,"week 6, listed as dapagliflozin",51.69%
same,"Change from baseline in Total cholesterol, ANCOVA LS mean (SE)",[1],6.87(2.27) mg/dL
same,"Change from baseline in Total cholesterol, Mean (SD)",[1],7.71(22.44) mg/dL
same,"Change from baseline in total cholesterol, Median",[1],7.00 mg/dL
same,"fasting Total cholesterol, Mean (SD)",[1],145.62(31.91) mg/dL
same,"fasting Total cholesterol, Median",[1],145.50 mg/dL
same,"Change from baseline in FPG, ANCOVA LS mean (SE)",[2],-23.81 mg/dL
same,"Change from baseline in FPG, Mean (SD)",[2],-24.90 mg/dL
same,"Change from baseline in FPG, Median",[2],-24.00 mg/dL
same,"Change from baseline in HbA1c, ANCOVA LS mean (SE)",[2],−0.63 % p
same,"Change from baseline in HbA1c, Mean (SD)",[2],−0.58 % p
same,"Change from baseline in HbA1c, Median",[2],−0.59 % p
same,"Change from baseline in body weight, ANCOVA LS mean (SE)",[2],−1.61(0.21) kg
same,"Change from baseline in body weight, Mean (SD)",[2],−1.60(1.25) kg
same,"Change from baseline in body weight, Median",[2],-1.50 kg
same,"Change from baseline in fasting c-peptide, ANCOVA LS mean (SE)",[2],−0.07(0.02) ng/mL
same,"Change from baseline in fasting c-peptide, Mean (SD)",[2],−0.07(0.18) ng/mL
same,"Change from baseline in fasting c-peptide, Median",[2],-0.07 ng/mL
same,"FPG, Mean (SD)",[2],124.37 mg/dL
same,"FPG, Median",[2],122.00 mg/dL
same,"HbA1c, Mean (SD)",[2],7.10%
same,"HbA1c, Median",[2],6.98%
same,"Subjects achieving HbA1c target of <6.5%, (%)",[2],(14.61) %
same,"Subjects achieving therapeutic glycemic response, (%)",[2],(79.78) %
same,"body weight, Mean (SD)",[2],68.88(11.86) kg
same,"body weight, Median",[2],66.90 kg
same,"fasting c-peptide, Mean (SD)",[2],0.66(0.20) ng/mL
same,"fasting c-peptide, Median",[2],0.63 ng/mL
same,"FPG change from baseline, LS mean (SE)",week 12,−30.11(2.03) mg/dL
same,"HOMA-IR change from baseline, LS mean (SE)",week 12,−1.60(0.17)
same,"HOMA-β change from baseline, LS mean (SE)",week 12,8.75(3.15)
same,"HbA1c change from baseline, LS mean (SE)",week 12,−0.79(0.05) % p
same,"LDL-C change from baseline, LS mean (SE)",week 12,0.56(1.73) mg/dL
same,Subjects achieving HbA1c target of <7%,week 12,(63.64) %
same,Subjects achieving HbA1c<6.5%,week 12,26.14%
same,Subjects achieving therapeutic response (HbA1c change >0.5% or HbA1c<7%),week 12,79.55%
same,"UACR change from baseline, LS mean (SE)",week 12,−3.38(7.57) g/kg
same,"UGCR change from baseline, LS mean (SE)",week 12,45.14(2.66) mg/mg
same,"diastolic blood pressure change from baseline, LS mean (SE)",week 12,−4.35(0.81) mmHg
same,"fasting c-peptide change from baseline, LS mean (SE)",week 12,−0.09(0.02) ng/ml
same,"leptin change from baseline, LS mean (SE)",week 12,−2.70(0.51) ng/mL
same,Subjects achieving HbA1c target of <7%,"week 12, listed as dapagliflozin",63.64%
same,"Change from baseline in Total cholesterol, ANCOVA LS mean (SE)",[3],4.25(2.04) mg/dL
same,"Change from baseline in Total cholesterol, Mean (SD)",[3],5.47(18.88) mg/dL
same,"Change from baseline in total cholesterol, Median",[3],5.00 mg/dL
